# Read-outs that look alike come from different tables or passages of the source.
# Columns and labels:
# [1] = rat, in vivo
# [2] = Chronic toxicity in rats: autopsy and weight coefficients of viscera; details: any of the tested doses; after the end of administration
# [3] = test system: type 1 human immunodeficiency virus; test: Antiviral activity on HIV-1 infected human cell model (cell staining, CPE, syncytium formation); details: for CPE/syncytia (+): number of pluses of the four-plus system; for Cell survival rate, % / Number of cells × 10^3/mL: HIV-1 infected cells
# [4] = test system: human lymphoblastoid cells; test: Cytotoxicity in human lymphoblastoid cells model
# [5] = rat, in vivo; remark: listed apart in the source
# [6] = test system: A/Swine/1976/31 (H1N1) influenza virus; type: in vivo, mice; details: for Infectious virus titer (log10EID50/20 mg tissue): lung tissue
substance,measurement,setting,value
N-fullerene tris(δ-aminocaproic acid) hydrate [Agent 1],induction of microscopic changes in organs,[1],the identified changes were not induced by the studied substance
same,"Animals with changes, Number: Liver, Plethora of sinusoidal capillaries",[1]; 20 mg/kg,5
same,"Animals with changes, Number: Lung, Thickening of the interalveolar septa (total)",[1]; 20 mg/kg,1
same,autopsy finding at the injection site (skeletal muscles),[2],"a brownish color of muscle tissue, fascia, and fat layers was noticed"
same,CPE/syncytia (+),[3]; 0.5 mcg/mL,4.0 +
same,CPE/syncytia (+),[3]; 1.0 mcg/mL,2.0 +
same,CPE/syncytia (+),[3]; 5.0 mcg/mL,0 +
same,CPE/syncytia (+),[3]; 10 mcg/mL,0 +
same,"Cell survival rate, %",[3]; 0.5 mcg/mL,27%
same,Number of cells × 10^3/mL,[3]; 0.5 mcg/mL,133.2 10^3/mL
same,"Cell survival rate, %",[3]; 1.0 mcg/mL,75%
same,Number of cells × 10^3/mL,[3]; 1.0 mcg/mL,320.4 10^3/mL
same,"Cell survival rate, %",[3]; 5.0 mcg/mL,92%
same,Number of cells × 10^3/mL,[3]; 5.0 mcg/mL,480.0 10^3/mL
same,"Cell survival rate, %",[3]; 10 mcg/mL,95%
same,Number of cells × 10^3/mL,[3]; 10 mcg/mL,579.3 10^3/mL
same,EC50 (50% effective concentration),[3]; HIV-1 infected human cells,5.0 µg/mL
same,"Animal body weight, g (M ± SD)","females, 5 mg/kg single i.m., day 0",19.1 ± 2. g
same,"Animal body weight, g (M ± SD)","females, 5 mg/kg single i.m., day 7",20.6 ± 2 g
same,"Animal body weight, g (M ± SD)","females, 5 mg/kg single i.m., day 14",22.8 ± 2. g
same,"Animal body weight, g (M ± SD)","females, 50 mg/kg single i.m., day 0",18.6 ± 1. g
same,"Animal body weight, g (M ± SD)","females, 50 mg/kg single i.m., day 7",19.9 g
same,"Animal body weight, g (M ± SD)","females, 50 mg/kg single i.m., day 14",21.9 ± 1. g
same,"Animal body weight, g (M ± SD)","females, 500 mg/kg single i.m., day 0",18.9 ± 1. g
same,"Animal body weight, g (M ± SD)","females, 500 mg/kg single i.m., day 7",20.7 ± 0 g
same,"Animal body weight, g (M ± SD)","females, 500 mg/kg single i.m., day 14",22.8 ± 1. g
same,"Animal body weight, g (M ± SD)","males, 5 mg/kg single i.m., day 0",23.0 ± 2.9 g
same,"Animal body weight, g (M ± SD)","males, 5 mg/kg single i.m., day 7",24.1 ± 2 g
same,"Animal body weight, g (M ± SD)","males, 5 mg/kg single i.m., day 14",25.4 ± 2. g
same,"Animal body weight, g (M ± SD)","males, 50 mg/kg single i.m., day 0",22.4 ± 2.1 g
same,"Animal body weight, g (M ± SD)","males, 50 mg/kg single i.m., day 7",23.7 ± 2 g
same,"Animal body weight, g (M ± SD)","males, 50 mg/kg single i.m., day 14",25.4 ± 2. g
same,"Animal body weight, g (M ± SD)","males, 500 mg/kg single i.m., day 0",22.6 ± 2.2 g
same,"Animal body weight, g (M ± SD)","males, 500 mg/kg single i.m., day 7",24.2 ± 1 g
same,"Animal body weight, g (M ± SD)","males, 500 mg/kg single i.m., day 14",26.2 ± 1. g
same,local irritant effect,"mice and rats, after a single intramuscular injection",does not cause a local irritant effect
same,death during the 14-day observation period,"mice, 5, 50 and 500 mg/kg single i.m.",No death occurred
same,LD50,"mice, single intramuscular administration, exceeds the maximal tested dose",> 500 mg/kg
same,"Cell survival rate, %",[4]; 0.5 mcg/mL,95%
same,Number of cells × 10^3/mL,[4]; 0.5 mcg/mL,633 10^3/mL
same,"Cell survival rate, %",[4]; 1.0 mcg/mL,94%
same,Number of cells × 10^3/mL,[4]; 1.0 mcg/mL,599 10^3/mL
same,"Cell survival rate, %",[4]; 5.0 mcg/mL,96%
same,Number of cells × 10^3/mL,[4]; 5.0 mcg/mL,530 10^3/mL
same,"Cell survival rate, %",[4]; 10.0 mcg/mL,92%
same,Number of cells × 10^3/mL,[4]; 10.0 mcg/mL,500 10^3/mL
same,"Cell survival rate, %",[4]; 100 mcg/mL,70%
same,Number of cells × 10^3/mL,[4]; 100 mcg/mL,433 10^3/mL
same,"Weight coefficients of viscera, Spleen",[5],5.2 ± 0.7 g/kg body weight
same,"Weight coefficients of viscera, heart",[5],4.1 ± 0.4 g/kg body weight
same,"Weight coefficients of viscera, kidneys",[5],6.5 ± 0.4 g/kg body weight
same,"Weight coefficients of viscera, liver",[5],32.2 ± 1.8 g/kg body weight
same,"Weight coefficients of viscera, lungs",[5],7.1 ± 0.5 g/kg body weight
same,"Weight coefficients of viscera, thymus",[5],1.2 ± 0.4 g/kg body weight
same,weight coefficients of organs versus control,[5],no significant difference was found between experimental and control animals
same,weight coefficients of viscera versus control,[5],no distinctions between the rats of the experimental groups and the control group
same,"Weight coefficients of viscera, Spleen",[5]; 3 mg/kg,4.7 ± 0.5 g/kg body weight
same,"Weight coefficients of viscera, heart",[5]; 3 mg/kg,3.5 ± 0.7 g/kg body weight
same,"Weight coefficients of viscera, kidneys",[5]; 3 mg/kg,7.2 ± 0.5 g/kg body weight
same,"Weight coefficients of viscera, heart",[5]; 9 mg/kg,3.8 ± 0.6 g/kg body weight
same,Average lifetime (LD),"[6]; 30 mg/kg, Summary dose, n=30",10.6 days
same,Increase in LD,"[6]; 30 mg/kg, Summary dose, n=30",1.9 days
same,"Mortality rate, %","[6]; 30 mg/kg, Summary dose, n=30",56.7%
same,Number of survivors,"[6]; 30 mg/kg, Summary dose, n=30",13
same,Average lifetime (LD),"[6]; 30 mg/kg, virus 1 LD50, n=15",12.3 days
same,Increase in LD,"[6]; 30 mg/kg, virus 1 LD50, n=15",1.7 days
same,"Mortality rate, %","[6]; 30 mg/kg, virus 1 LD50, n=15",40.0%
same,Number of survivors,"[6]; 30 mg/kg, virus 1 LD50, n=15",9
same,Average lifetime (LD),"[6]; 30 mg/kg, virus 10 LD50, n=15",8.9 days
same,Increase in LD,"[6]; 30 mg/kg, virus 10 LD50, n=15",2.4 days
same,"Mortality rate, %","[6]; 30 mg/kg, virus 10 LD50, n=15",73.3%
same,Number of survivors,"[6]; 30 mg/kg, virus 10 LD50, n=15",4
same,Average lifetime (LD),"[6]; 100 mg/kg, Summary dose, n=28",11.8 days
same,Increase in LD,"[6]; 100 mg/kg, Summary dose, n=28",3.1 days
same,"Mortality rate, %","[6]; 100 mg/kg, Summary dose, n=28",39.3%
same,Number of survivors,"[6]; 100 mg/kg, Summary dose, n=28",17
same,Average lifetime (LD),"[6]; 100 mg/kg, virus 1 LD50, n=15",13.1 days
same,Increase in LD,"[6]; 100 mg/kg, virus 1 LD50, n=15",2.5 days
same,"Mortality rate, %","[6]; 100 mg/kg, virus 1 LD50, n=15",26.7%
same,Number of survivors,"[6]; 100 mg/kg, virus 1 LD50, n=15",11
same,Average lifetime (LD),"[6]; 100 mg/kg, virus 10 LD50, n=13",10.3 days
same,Increase in LD,"[6]; 100 mg/kg, virus 10 LD50, n=13",3.7 days
same,"Mortality rate, %","[6]; 100 mg/kg, virus 10 LD50, n=13",53.8%
same,Number of survivors,"[6]; 100 mg/kg, virus 10 LD50, n=13",6
same,Average lifetime (LD),"[6]; 300 mg/kg, Summary dose, n=28",12.3 days
same,Increase in LD,"[6]; 300 mg/kg, Summary dose, n=28",3.7 days
same,"Mortality rate, %","[6]; 300 mg/kg, Summary dose, n=28",32.1%
same,Number of survivors,"[6]; 300 mg/kg, Summary dose, n=28",19
same,Size of chronic post-influenza pneumonia sites (% of the total surface area of the lungs),"[6]; 300 mg/kg, the lower of the virus doses used, day 15",25 ± 7%
same,Average lifetime (LD),"[6]; 300 mg/kg, virus 1 LD50, n=14",13.6 days
same,Increase in LD,"[6]; 300 mg/kg, virus 1 LD50, n=14",3.0 days
same,"Mortality rate, %","[6]; 300 mg/kg, virus 1 LD50, n=14",21.4%
same,Number of survivors,"[6]; 300 mg/kg, virus 1 LD50, n=14",11
same,Average lifetime (LD),"[6]; 300 mg/kg, virus 10 LD50, n=14",11.0 days
same,Increase in LD,"[6]; 300 mg/kg, virus 10 LD50, n=14",4.4 days
same,"Mortality rate, %","[6]; 300 mg/kg, virus 10 LD50, n=14",42.9%
same,Number of survivors,"[6]; 300 mg/kg, virus 10 LD50, n=14",8
same,Infectious virus titer (log10EID50/20 mg tissue),"[6]; 300 mg/kg, virus dose 1 LD50",3.7 ± 0.3 log10EID50/20 mg tissue
same,Infectious virus titer (log10EID50/20 mg tissue),"[6]; 300 mg/kg, virus dose 5 LD50",4.1 ± 0.2 log10EID50/20 mg tissue
